# From patent publication US9023767B2, “γ-Secretase substrates and methods of use” (Memorial Sloan-Kettering Cancer Center, priority 2009, dated 2015)
# Read-outs that look alike come from different tables or passages of the source.
# Assays:
# A20 mouse lymphoma cells = assay: Lymphoma cell proliferation assay, [3H]thymidine incorporation; assay type: cell-based; conditions: 48 hours
# Experimental: For a lymphoma cell proliferation assay, A20 mouse lymphoma cells were seeded in a 96-well plate at a concentration of 5×10^5 cells/ml in 100 μl RPMI media containing 2% fetal bovine serum. An additional 100 μl of media containing DMSO or γ-secretase inhibitor was added and incubated for 48 hours at 37° C. After this incubation, the cells were incubated for 5 hours with 2 μCi/ml [^3H]thymidine at 37° C. Proliferative response was then evaluated by harvesting the tritiated DNA from cells using a Skatron cell harvester and proliferation assessed as a function of [^3H]thymidine incorporation measured on a β-counter.
# γ-secretase [1] = target: T1, γ-secretase (Homo sapiens (Human), UniProt P49768); assay: In vitro γ-secretase assay, solubilized γ-secretase, ECL; assay type: biochemical; conditions: Sb4 substrate
# Source text: The γ-secretase cleaved Aβ product derived from C100Flag substrate was detected by a pair of antibodies (biotinylated 4G8 and ruthenylated G2-10*) while Sb4 cleaved product was detected by ruthenylated G2-10* alone (FIG. 10a) and quantified using electrochemiluminescence (ECL) technology.
# An in vitro assay was based on the one previously reported by Li et al. (2000), except we utilized Sb4 substrate that eliminated the need for biotinylated antibody. […] All assays incorporate ruthenylated G2-10* antibody to detect 40-site cleavage of APP or recombinant Sb4 substrate and quantitated activity by measuring ECL.
# γ-secretase [2] = target: γ-secretase (Mus musculus (Mouse), UniProt P49769); assay: Cell-based activity assay, N2A cells stably over-expressing APP
# Experimental: (§1) The potency of two structurally different GSIs was assayed in four unique γ-secretase activity assays. IC50 values were determined from the dose response curves using a non-linear regression analysis in the Prism software. An in vitro assay was based on the one previously reported by Li et al. (2000), except we utilized Sb4 substrate that eliminated the need for biotinylated antibody. The cell-based activity assay used N2A mouse neuroblastoma cells stably over-expressing APP and a biotinylated 4G8 antibody that binds the C-terminus of the amyloid beta peptide. The exo-cell assay incubated HeLa cells simultaneously with GSI, Sb4 substrate as well as 0.25% CHAPSO detergent prior to detecting substrate cleavage. Finally, the extended exo-cell assay first incubated HeLa cells with GSI for 24 hrs. Subsequently, the cells were washed 1× in PBS and then incubated with Sb4 substrate and CHAPSO detergent. The assay was then carried out exactly as described for the original exo-cell method. All assays incorporate ruthenylated G2-10* antibody to detect 40-site cleavage of APP or recombinant Sb4 substrate and quantitated activity by measuring ECL. The latter assays were performed as previously described (Li et al., 2000). In the in vitro assay, recombinant Sb4 substrate was incubated for 2.5 hours at 37° C. in pH 7.0 PIPES buffer in the presence of 0.25% CHAPSO detergent and solubilized γ-secretase at a final concentration of 40 ng/ul. The detection of cleaved substrate was determined using ruthenylated G2-10* antibody. Since the Sb4 substrate is biotinylated additional 6E10 biotinylated antibody used in earlier assays is not required. In the cell-based assay, N2A mouse neuroblastoma cells that stably overexpress amyloid precursor protein were incubated with γ-secretase inhibitors in a final concentration of 1% DMSO for 24 hrs. Following incubation, the supernatant was removed from the cells and assayed for Aβ40, the cleaved APP product, using ruthenylated G2-10* antibody as well as biotinylated 4G8 antibody.
# γ-secretase [3] = target: γ-secretase (Homo sapiens (Human), UniProt P49768+Q92542); assay: Photoaffinity labeling of γ-secretase in HeLa membrane by Aβ17-23BPA20-biotin; assay type: binding; conditions: inhibitor at 2 μM
# Experimental: FIG. 4. […] Various concentrations of inhibitor were incubated with APP substrate (S4) or Notch peptide substrate containing the C-terminal biotinylated transmembrane domain of Notch1 and HeLa cell membrane in the presence of 0.25% CHAPSO. Aβ40 was detected by G2-10 antibody. The cleaved Notch product was detected by Val1744 antibody that specifically recognizes the cleaved product between Gly1743 and Val1744. Activities are expressed as percentage relative to reading that was produced in DMSO control. […] Various concentrations of S4 substrate were incubated with HeLa membrane in fixed concentrations of inhibitor as indicated. The double reciprocal velocity (1/v) and substrate concentrations (1/S) are plotted to determine the type of inhibition. […] Assays were conducted as described in FIG. 4A. […] The labeled samples were solubilized with RIPA buffer. Biotinylated proteins were captured with streptavidin-agarose and probed by immunoblotting using antibodies against biotin, PS1-CTF, PS1-NTF, Nicastrin, PEN-2 and APH-1a. HeLa cell membrane proteins were directly loaded onto lanes indicated by an arrow in the PEN-2 and APH-1a blots as positive controls. […] Upper panel: PS1-NTF; Lower panel: PS1-CTF.
# The labeled proteins were eluted with 2×SDS sample buffer and analyzed with Western blotting using antibodies against the components of γ-secretase complex. Protein concentration was determined with the Dc protein assay kit (Bio-Rad)
# After the photolyzed membranes were solubilized, biotinylated proteins were captured, eluted and analyzed by western blotting with antibodies against biotin, PS1, nicastrin, PEN-2 and APH-1.
# γ-secretase [4] = target: T1, γ-secretase; assay: Exo-cell γ-secretase assay, HeLa cells, Sb4 substrate; assay type: cell-based
# Experimental: Therefore, HeLa cells were first incubated with Sb4 substrate, as well as CHAPSO detergent as depicted in FIG. 14c. Cells were seeded at their indicated concentration in 96-well plates and allowed to attach overnight. The next day, media was removed and cells were washed once with PBS. Fresh media was then added containing 0.25% CHAPSO detergent, Sb4 substrate to a final concentration of 1 μM, and 1% DMSO or γ-secretase inhibitor. This was incubated for 2.5 hours at 37° C. Media was removed and cell debris was pelleted from this media for 5 min. at 3,500 rpm. Supernatant was then added to ruthenylated G2-10* antibody that recognizes cleaved product, but not uncleaved substrate. This was incubated for an additional 2 hours at room temperature. Finally, magnetic streptavidin beads were added to a final concentration of 80 μg/ml and incubated for 30 min. at room temperature. Assay buffer was added to the samples and γ-secretase-mediated cleavage of substrate was monitored using electrochemiluminescence (ECL) (Li et al., 2000). (FIG. 14c).
# as §1
smiles,measurement,setting,value
CC(NC(=O)Cc1cc(F)cc(F)c1)C(=O)NC1N=C(c2ccccc2)c2ccccc2N(C)C1=O (centres unmarked) [Compound E],inhibition of cellular proliferation,A20 mouse lymphoma cells,able to inhibit cellular proliferation
same,IC50,γ-secretase [1],1.2 nM
same,IC50,"γ-secretase [2]; 24 hrs, Aβ40; read-out: Cell-based (nM), IC50",4.6 nM
same,IC50,"γ-secretase [2]; read-out: Cell-based (nM), IC50; 24 hrs, Aβ40",4.6 nM
same,block of photo-crosslinking of PS1-CTF and PS1-NTF by Aβ17-23BPA20-biotin,γ-secretase [3],completely blocked
same,IC50,"γ-secretase [4]; ECL detection, read-out: Exo-Cell (nM), IC50",3.8 nM
same,IC50,"γ-secretase [4]; IC50, exo-cell assay, HTRF detection",5.4 nM
same,IC50,"γ-secretase [4]; read-out: Exo-Cell (nM), IC50, ECL detection",3.8 nM
